Active and inactive are the calls of the source. The rule behind the calls is not given here.
Experiments:
MDA-MB-231 [1] = test: Synergistic induction of apoptosis in human MDA-MB-231 cells assessed as early apoptotic cells at 0.8 uM after 48 hrs in presence of DMXAA by Annexin-V/FITC/PI staining based flow cytometry (reference value: 0.05 %); type: functional
MDA-MB-231 [2] = test: Induction of apoptosis in human MDA-MB-231 cells assessed as viable cells at 0.2 uM after 48 hrs by Annexin-V/FITC/PI staining based flow cytometry (reference value: 96.51 %); type: functional; settings: MDA-MB-231, 48 h, read-out: Activity
MDA-MB-231 [3] = test: Increase in p53 level in human MDA-MB-231 cells at 0.2 to 0.8 uM after 48 hrs by Western blot analysis; type: functional, cell-based
MDA-MB-231 [4] = test: Synergistic induction of apoptosis in human MDA-MB-231 cells assessed as late apoptotic cells at 0.2 uM after 48 hrs in presence of DMXAA by Annexin-V/FITC/PI staining based flow cytometry (reference value: 0.00 %); type: functional
MDA-MB-231 [5] = test: Synergistic decrease in MDM2 level in human MDA-MB-231 cells at 0.1 to 0.5 uM after 48 hrs in presence of DMXAA by Western blot analysis; type: functional, cell-based
MDA-MB-231 [6] = test: Decrease in caspase-3 level in human MDA-MB-231 cells at 0.2 to 0.8 uM after 48 hrs by Western blot analysis; type: functional, cell-based
MDA-MB-231 [7] = test: Induction of apoptosis in human MDA-MB-231 cells assessed as late apoptotic cells at 0.2 uM after 48 hrs by Annexin-V/FITC/PI staining based flow cytometry (reference value: 1.50 %); type: functional
MDA-MB-231 [8] = test: Synergistic induction of apoptosis in human MDA-MB-231 cells assessed as early apoptotic cells at 0.2 uM after 48 hrs in presence of DMXAA by Annexin-V/FITC/PI staining based flow cytometry (reference value: 0.05 %); type: functional
MDA-MB-231 [9] = test: Synergistic increase in p53 level in human MDA-MB-231 cells at 0.1 to 0.5 uM after 48 hrs in presence of DMXAA by Western blot analysis; type: functional, cell-based
MDA-MB-231 [10] = test: Synergistic induction of apoptosis in human MDA-MB-231 cells assessed as viable cells at 0.4 uM after 48 hrs in presence of DMXAA by Annexin-V/FITC/PI staining based flow cytometry (reference value: 99.95 %); type: functional; settings: MDA-MB-231, 48 h, read-out: Activity
MDA-MB-231 [11] = test: Induction of apoptosis in human MDA-MB-231 cells assessed as viable cells at 0.4 uM after 48 hrs by Annexin-V/FITC/PI staining based flow cytometry (reference value: 96.51 %); type: functional; settings: MDA-MB-231, 48 h, read-out: Activity
MDA-MB-231 [12] = test: Decrease in MDM2 level in human MDA-MB-231 cells at 0.2 to 0.8 uM after 48 hrs by Western blot analysis; type: functional, cell-based
MDA-MB-231 [13] = test: Induction of apoptosis in human MDA-MB-231 cells assessed as viable cells at 0.8 uM after 48 hrs by Annexin-V/FITC/PI staining based flow cytometry (reference value: 96.51 %); type: functional; settings: MDA-MB-231, 48 h, read-out: Activity
MDA-MB-231 [14] = test: Synergistic induction of apoptosis in human MDA-MB-231 cells assessed as decrease in caspase-3 level at 0.1 to 0.5 uM after 48 hrs in presence of DMXAA by Western blot analysis; type: functional, cell-based
MCF7 = test: Antiproliferative activity against human MCF7 cells after 48 hrs by CCK8 assay; type: functional, cell-based; settings: MCF7, 48 h
MDA-MB-231 [15] = test: Synergistic induction of apoptosis in human MDA-MB-231 cells assessed as increase in cleaved caspase-3 level at 0.1 to 0.5 uM after 48 hrs in presence of DMXAA by Western blot analysis; type: functional, cell-based
MDA-MB-231 [16] = test: Induction of apoptosis in human MDA-MB-231 cells assessed as early apoptotic cells at 0.4 uM after 48 hrs by Annexin-V/FITC/PI staining based flow cytometry (reference value: 0.44 %); type: functional
MDA-MB-231 [17] = test: Induction of apoptosis in human MDA-MB-231 cells assessed as increase in cleaved caspase-3 expression at 0.2 to 0.8 uM after 48 hrs by Western blot analysis; type: functional, cell-based
MDA-MB-231 [18] = test: Synergistic induction of apoptosis in human MDA-MB-231 cells assessed as necrotic cells at 0.8 uM after 48 hrs in presence of DMXAA by Annexin-V/FITC/PI staining based flow cytometry (reference value: 0.00 %); type: functional
MDA-MB-231 [19] = test: Induction of apoptosis in human MDA-MB-231 cells assessed as necrotic cells at 0.4 uM after 48 hrs by Annexin-V/FITC/PI staining based flow cytometry (reference value: 1.55 %); type: functional
MDA-MB-231 [20] = test: Synergistic induction of apoptosis in human MDA-MB-231 cells assessed as viable cells at 0.2 uM after 48 hrs in presence of DMXAA by Annexin-V/FITC/PI staining based flow cytometry (reference value: 99.95 %); type: functional; settings: MDA-MB-231, 48 h, read-out: Activity
MDA-MB-231 [21] = test: Decrease in caspase-9 level in human MDA-MB-231 cells at 0.2 to 0.8 uM after 48 hrs by Western blot analysis; type: functional, cell-based
MDA-MB-231 [22] = test: Synergistic cell cycle arrest in human MDA-MB-231 cells assessed as accumulation at G2/M phase at 0.2 to 0.8 uM after 48 hrs in presence of DMXAA by propidium iodide staining based flow cytometric method; type: functional
MDA-MB-231 [23] = test: Induction of apoptosis in human MDA-MB-231 cells assessed as late apoptotic cells at 0.4 uM after 48 hrs by Annexin-V/FITC/PI staining based flow cytometry (reference value: 1.50 %); type: functional
MDA-MB-231 [24] = test: Induction of apoptosis in human MDA-MB-231 cells assessed as early apoptotic cells at 0.2 uM after 48 hrs by Annexin-V/FITC/PI staining based flow cytometry (reference value: 0.44 %); type: functional
MDA-MB-231 [25] = test: Synergistic induction of apoptosis in human MDA-MB-231 cells assessed as increase in cleaved PARP level at 0.1 to 0.5 uM after 48 hrs in presence of DMXAA by Western blot analysis; type: functional, cell-based
MDA-MB-231 [26] = test: Antiproliferative activity against human MDA-MB-231 cells after 48 hrs by CCK8 assay; type: functional, cell-based; settings: MDA-MB-231, 48 h
MDA-MB-231 [27] = test: Synergistic induction of apoptosis in human MDA-MB-231 cells assessed as early apoptotic cells at 0.4 uM after 48 hrs in presence of DMXAA by Annexin-V/FITC/PI staining based flow cytometry (reference value: 0.05 %); type: functional
HepG2 = test: Antiproliferative activity against human HepG2 cells after 48 hrs by CCK8 assay; type: functional, cell-based; settings: HepG2, 48 h
MDA-MB-231 [28] = test: Induction of apoptosis in human MDA-MB-231 cells assessed as increase in cleaved PARP expression at 0.2 to 0.8 uM after 48 hrs by Western blot analysis; type: functional, cell-based
MDA-MB-231 [29] = test: Cell cycle arrest in human MDA-MB-231 cells assessed as increase in accumulation at G2/M phase at 0.8 uM after 48 hrs by propidium iodide staining based flow cytometric method relative to control; type: functional
MDA-MB-231 [30] = test: Synergistic induction of apoptosis in human MDA-MB-231 cells assessed as necrotic cells at 0.2 uM after 48 hrs in presence of DMXAA by Annexin-V/FITC/PI staining based flow cytometry (reference value: 0.00 %); type: functional

IC50 (MCF7): 3.4 µM
IC50 (MDA-MB-231 [26]): 0.46 µM
IC50 (HepG2): 9.2 µM
Structure (SMILES): O=c1c2cc(Br)ccc2oc2cc(O)cc(O)c12
Activity (MDA-MB-231 [1]): 6.81%
viability at 0.2 µM (MDA-MB-231 [2]): 79.2%
Activity (MDA-MB-231 [3]): Active
Activity (MDA-MB-231 [4]): 10.2%
Activity (MDA-MB-231 [5]): Active
Activity (MDA-MB-231 [6]): Active
Activity (MDA-MB-231 [7]): 5.35%
Activity (MDA-MB-231 [8]): 2.79%
Activity (MDA-MB-231 [9]): Active
viability at 0.4 µM (MDA-MB-231 [10]): 46.3%
viability at 0.4 µM (MDA-MB-231 [11]): 47.9%
Activity (MDA-MB-231 [12]): Active
viability at 0.8 µM (MDA-MB-231 [13]): 39.1%
Activity (MDA-MB-231 [14]): Active
Activity (MDA-MB-231 [15]): Active
Activity (MDA-MB-231 [16]): 1.74%
Activity (MDA-MB-231 [17]): Active
Activity (MDA-MB-231 [18]): 17.47%
Activity (MDA-MB-231 [19]): 38.81%
viability at 0.2 µM (MDA-MB-231 [20]): 48.6%
Activity (MDA-MB-231 [21]): Active
Activity (MDA-MB-231 [22]): inactive
Activity (MDA-MB-231 [23]): 11.53%
Activity (MDA-MB-231 [24]): 0.98%
Activity (MDA-MB-231 [25]): Active
Activity (MDA-MB-231 [27]): 4.7%
Activity (MDA-MB-231 [28]): Active
Activity (MDA-MB-231 [29]): 21.8%
Activity (MDA-MB-231 [30]): 38.43%

Source: ChEMBL document CHEMBL4033623, “Synthesis of xanthone derivatives and studies on the inhibition against cancer cells growth and synergistic combinations of them” (Eur J Med Chem, 2017)
